Columns and labels:
[1] = biological target: FPR1 (Homo sapiens (Human), UniProt P21462); experiment: Agonistic activity (calcium FLIPR) in hFPR1-Gα15-CHO cells; format: cell-based; details: FLIPR Calcium 5 dye fluorescence, agonistic response
Protocol: (§1) Cells (hFPR1-Gα15-CHO or hFPR2-Aq-CHO) are suspended in 10 mL of respective complete medium (F12(1×) HAM media; 10% HI-FBS; 0.1 mg/ml Hygromycin B and 0.2 mg/ml Zeocin [for hFPR1 only]; 0.4 mg/mL Geneticin and 0.25 mg/ml Zeocin [for hFPR2-Aq only]) and viability is checked using Trypan Blue exclusion. After washing, the cells are plated at 10,000 cells per well in 40 μL complete medium in a 384-well sterile clear bottom black plate and incubated in a 5% CO2 incubator at 37° C. for 18 hours. Plating media is removed from each well by decanting and gentle tapping before 30 μL of 0.5× Calcium 5 dye solution (0.5×FLIPR Calcium 5 dye (Molecular devices, R8186)); HBSS; 20 mM HEPES; 2.5 mM Probenecid; 0.025% Pluronic F-127; pH adjusted to 7.4) is added to each well and the plate is then incubated at 37° C. for 30 minutes. For the assay the plate is equilibrated at room temperature for 10 minutes before placing it in the FLIPR. Compounds are dissolved in DMSO and serially diluted over an 11 point half log (3.16 fold) dilution (2 mM to 20 nM). Compounds are then diluted 1:50 in assay buffer (HBSS; 20 mM HEPES; 2.5 mM Probenecid; 0.05% gelatin; 0.1% BSA; pH adjusted to 7.4) just before performing the assay. Compounds are finally added to the respective wells of the cell plate (final assay concentration 10 μM to 100 pM) using the FLIPR (e.g. FLIPR-Tetra, Molecular Devices) and fluorescence readings are captured for 5 minutes. The increase in fluorescence from the basal reading in the presence of the compounds is compared with that of the control wells (wells having no compound) to calculate the activity of the compounds. The EC50 values of the compounds can be determined using e.g. Graph pad Prism software.
(§2) Assay Method for Measuring Agonistic Activity of Compounds in hFPR1-Gα15-CHO and hFPR2-Aq-CHO Cell
(§3) Cryo-vial containing 6×10^6 cells (hFPR1-Gα15-CHO or hFPR2-Aq-CHO) was thawed in a 37° C. water bath. Cells were suspended in 10 ml of respective complete growth media (F12(1×) HAM media (Gibco; Cat#11765); 10% HI-FBS (Gibco; Cat#10082); 0.1 mg/ml Hygromycin B (Invitrogen; Cat#10687-010) [for hFPR1 only]; 0.2 mg/ml Zeocin (Invitrogen; Cat#R25001) [for hFPR1 only]; 0.4 mg/ml Geneticin (Gibco; Cat#10131) [for hFPR2-Aq only]; 0.25 mg/ml Zeocin (Invitrogen; Cat#R25001) [for hFPR2-Aq only]) in a 15 ml centrifuge tube. The cell viability was checked with the help of Trypan Blue dye. Upon washing the cells, those were plated in a 384-well sterile clear bottom black plate (Greiner Bioone Cat#781091) so that, each well contained 10,000 cells in 40 μl complete growth media. The plate was incubated in a 5% CO2 incubator at 37° C. for 18 hours.
(§4) Before assay on the next day, the cell plating media was removed from each well of the plate by decanting and gentle tapping. 30 μl, 0.11 of 0.5× Calcium 5 dye solution (0.5×FLIPR Calcium 5 dye (Molecular devices Cat# R8186); HBSS (Invitrogen; Cat#14025); 20 mM HEPES (Sigma; Cat#H0887); 2.5 mM Probenecid (Sigma; Cat#P8761); 0.025% Pluronic F-127 (Sigma; Cat#P2443); pH adjusted to 7.4) was added to each well. The plate was then incubated at 37° C. for 30 minutes. Following which the plate was equilibrated at room temperature for 10 minutes before placing it in a 384 well FLIPR for assay. Compounds were dissolved in DMSO and serially diluted following 11 point half log (3.16 fold) dilution with a starting concentration of 2 mM (Final assay concentration 10 μM). Aliquots of above mentioned each dilution was mixed with assay buffer (HBSS (Invitrogen; Cat#14025); 20 mM HEPES (Sigma; Cat#H0887); 2.5 mM Probenecid (Sigma; Cat#P8761); 0.05% gelatin (Sigma; Cat#G1890); 0.1% BSA (Sigma; Cat#A3059); pH adjusted to 7.4) just before performing the assay. Compounds were added to the respective wells of the assay ready cell plate with the help of the FLIPR (FLIPR Tetra) and fluorescence readings were captured for 5 minutes to measure any agonistic response of the compounds. […]

[2] = biological target: FPR2 (Homo sapiens (Human), UniProt P25090); experiment: Agonistic activity (calcium FLIPR) in hFPR2-Aq-CHO cells; format: cell-based; details: FLIPR Calcium 5 dye fluorescence, agonistic response
Protocol: as §1, §2, §3, §4

Sequence of FPR2 (P25090 whole entry): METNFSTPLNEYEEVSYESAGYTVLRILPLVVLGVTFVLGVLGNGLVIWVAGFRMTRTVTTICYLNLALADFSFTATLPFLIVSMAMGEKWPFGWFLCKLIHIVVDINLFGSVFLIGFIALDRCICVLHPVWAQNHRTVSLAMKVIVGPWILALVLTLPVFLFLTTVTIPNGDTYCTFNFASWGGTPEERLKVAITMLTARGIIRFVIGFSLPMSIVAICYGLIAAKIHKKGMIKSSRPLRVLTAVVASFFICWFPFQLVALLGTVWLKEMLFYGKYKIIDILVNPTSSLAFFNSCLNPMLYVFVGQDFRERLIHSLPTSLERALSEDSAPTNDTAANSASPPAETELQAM
Sequence of FPR1 (P21462 whole entry): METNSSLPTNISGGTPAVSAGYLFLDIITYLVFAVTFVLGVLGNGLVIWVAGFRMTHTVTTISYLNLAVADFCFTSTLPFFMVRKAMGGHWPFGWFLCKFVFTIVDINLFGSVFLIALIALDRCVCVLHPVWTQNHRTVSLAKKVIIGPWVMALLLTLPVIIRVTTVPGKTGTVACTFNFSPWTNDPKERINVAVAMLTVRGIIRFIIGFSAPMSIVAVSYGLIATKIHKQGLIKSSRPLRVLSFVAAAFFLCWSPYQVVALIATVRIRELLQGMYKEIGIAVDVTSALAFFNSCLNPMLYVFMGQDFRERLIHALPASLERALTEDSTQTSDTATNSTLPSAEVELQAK

Row | Molecule | EC50 [1] [nM] | EC50 [2] [nM]
1 | COc1ccc([C@@H]2CCN(C(=O)C(C)(F)F)C[C@H]2NC(=O)Nc2ccc(Cl)cc2)cc1 (racemic) [Example 14, rac-trans-1-(4-chlorophenyl)-3-(1-(2,2-difluoropropanoyl)-4-(4-methoxyphenyl)piperidin-3-yl)urea] | < 1 | < 1
2 | COc1cc(F)c([C@@H]2CCNC[C@H]2NC(=O)Nc2ccc(Cl)cc2)c(F)c1 (racemic) [Example 9, rac-trans-1-(4-chlorophenyl)-3-(4-(2,6-difluoro-4-methoxyphenyl)piperidin-3-yl)urea] | 1 to 1000 | < 1
3 | COc1ccc([C@@H]2CCN(C(C)=O)C[C@H]2NC(=O)Nc2ccc(C)nc2)cc1 (racemic) [Example 26, rac-trans-1-(1-acetyl-4-(4-methoxyphenyl)piperidin-3-yl)-3-(6-methylpyridin-3-yl)urea] | 1 to 1000 | 1 to 1000
4 | ent1-1-(4-chlorophenyl)-3-(4-(2-fluoro-4-methoxyphenyl)piperidin-3-yl)urea [Example 45] | 1 to 1000 | < 1
5 | COc1ccc([C@@H]2CC(=O)N(CC(N)=O)C[C@H]2NC(=O)Nc2ccc(Cl)cc2)cc1 (racemic) [Example 20, rac-trans-2-(5-(3-(4-chlorophenyl)ureido)-4-(4-methoxyphenyl)-2-oxopiperidin-1-yl)acetamide] | 1 to 1000 | < 1
6 | COc1cc(F)c([C@@H]2CC(=O)NC[C@H]2NC(=O)Nc2ccc(Oc3ccccc3)cc2)c(F)c1 (racemic) [Example 54, rac-trans-1-[4-(2,6-Difluoro-4-methoxy-phenyl)-6-oxo-piperidin-3-yl]-3-(4-phenoxy-phenyl)-urea] | 1 to 1000 | < 1
7 | COc1ccc([C@@H]2CCN(C(C)=O)C[C@H]2NC(=O)Nc2cncnc2)cc1 (racemic) [Example 25, rac-trans-1-(1-acetyl-4-(4-methoxyphenyl)piperidin-3-yl)-3-(pyrimidin-5-yl)urea] | 1 to 1000 | 1 to 1000
8 | COCCN1CC(NC(=O)Nc2ccc(Cl)cc2)C(c2ccc(OC)cc2F)CC1=O (single isomer, unassigned; ent1) [Example 59, trans-ent1-1-(4-Chlorophenyl)-3-[4-(2-fluoro-4-methoxy-phenyl)-1-(2-methoxy-ethyl)-6-oxo-piperidin-3-yl]-urea] | 1 to 1000 | < 1
9 | COc1cc(F)c(C2CC(=O)NCC2NC(=O)Nc2ccncc2)c(F)c1 (single isomer, unassigned; ent2) [Example 48, ent2-1-(4-(2,6-difluoro-4-methoxyphenyl)-6-oxopiperidin-3-yl)-3-(pyridin-4-yl)urea] | 1 to 1000 | 1 to 1000
10 | COc1ccc([C@@H]2CCNC[C@H]2NC(=O)Nc2ccc(Cl)cc2)cc1 (racemic) [Example 4, rac-trans-1-(4-chlorophenyl)-3-(4-(4-methoxyphenyl)piperidin-3-yl)urea] | 1 to 1000 | < 1
11 | COc1ccc(C2CC(=O)NCC2NC(=O)Nc2ccc(Cl)cc2)c(F)c1 (single isomer, unassigned; ent2) [Example 43, trans-ent2-1-(4-chlorophenyl)-3-(4-(2-fluoro-4-methoxyphenyl)-6-oxopiperidin-3-yl)urea] | 1 to 1000 | 1 to 1000
12 | COc1ccc([C@@H]2CCN(C(=O)CCO)C[C@H]2NC(=O)Nc2ccc(Cl)cc2)cc1 (racemic) [Example 30, rac-trans-1-(4-chlorophenyl)-3-(1-(3-hydroxypropanoyl)-4-(4-methoxyphenyl)piperidin-3-yl)urea] | < 1 | < 1
13 | COc1ccc([C@@H]2CCN(C(=O)C3CC3)C[C@H]2NC(=O)Nc2ccc(Cl)cc2)cc1 (racemic) [Example 12, rac-trans-1-(4-chlorophenyl)-3-(1-(cyclopropanecarbonyl)-4-(4-methoxyphenyl)piperidin-3-yl)urea] | < 1 | < 1
14 | COc1cc(F)c([C@@H]2CC(=O)NC[C@H]2NC(=O)Nc2ncc(Cl)s2)c(F)c1 (racemic) [Example 56, rac-trans-1-(5-Chloro-thiazol-2-yl)-3-[4-(2,6-difluoro-4-methoxy-phenyl)-6-oxo-piperidin-3-yl]-urea] | 1 to 1000 | 1 to 1000

Now from value to molecule:

Row | EC50 [1] [nM] | EC50 [2] [nM] | Molecule
15 | 1 to 1000 | 1 to 1000 | COc1ccc(C2CC(=O)NCC2NC(=O)Nc2ccc(Cl)cc2)cc1 (single isomer, unassigned; ent2) [Example 77, trans-ent2-1-(4-chlorophenyl)-3-(4-(4-methoxyphenyl)-6-oxopiperidin-3-yl)urea]
16 | 1 to 1000 | 1 to 1000 | O=C(Nc1ccc(Cl)cc1)NC1CNCCC1c1ccccc1 (single isomer, unassigned; ent2) [Example 81, trans-ent2-1-(4-chlorophenyl)-3-(4-phenylpiperidin-3-yl)urea]
17 | 1 to 1000 | 1 to 1000 | COCCN1CC(NC(=O)Nc2ccc(Cl)cc2)C(c2ccc(OC)cc2F)CC1=O (single isomer, unassigned; ent2) [Example 60, trans-ent2-1-(4-Chlorophenyl)-3-[4-(2-fluoro-4-methoxy-phenyl)-1-(2-methoxy-ethyl)-6-oxo-piperidin-3-yl]-urea]
18 | 1 to 1000 | 1 to 1000 | COc1cc(F)c(C2C(NC(=O)Nc3ccc(Cl)cc3)CCCN2C)c(F)c1 (single isomer, unassigned; dia2) [Example 88, dia2-1-(4-chlorophenyl)-3-(2-(2,6-difluoro-4-methoxyphenyl)-1-methylpiperidin-3-yl)urea]
19 | < 1 | < 1 | COc1ccc(C2CCN(C(=O)C3CC3)CC2NC(=O)Nc2ccc(Cl)cc2)c(F)c1 (single isomer, unassigned; ent1) [Example 86, trans-ent1-1-(4-chlorophenyl)-3-(1-(cyclopropanecarbonyl)-4-(2-fluoro-4-methoxyphenyl)piperidin-3-yl)urea]
20 | 1 to 1000 | 1 to 1000 | O=C(Nc1ccc(Cl)cc1)NC1CN(CC(F)F)C(=O)CC1c1ccc(F)cc1F (single isomer, unassigned; ent1) [Example 65, trans-ent1-1-(4-Chlorophenyl)-3-[1-(2,2-difluoro-ethyl)-4-(2,4-difluoro-phenyl)-6-oxo-piperidin-3-yl]-urea]
21 | 1 to 1000 | 1 to 1000 | COCCN1CC(NC(=O)Nc2ccc(Cl)cc2)C(c2ccc(F)cc2F)CC1=O (single isomer, unassigned; ent1) [Example 63, trans-ent1-1-(4-Chlorophenyl)-3-[4-(2,4-difluoro-phenyl)-1-(2-methoxy-ethyl)-6-oxo-piperidin-3-yl]-urea]
22 | 1 to 1000 | – | CSc1ccc([C@@H]2CC(=O)NC[C@H]2NC(=O)Nc2ccc(Cl)cc2)cc1 (racemic) [Example 72, rac-trans-1-(4-chlorophenyl)-3-(4-(4-(methylthio)phenyl)-6-oxopiperidin-3-yl)urea]
